The source of these data is PMC5218480 (PLoS ONE, 2017).

The assay concerns MV-4-11 cells. As to the kind of experiment: Gene expression microarray analysis (Affymetrix PrimeView) and GSEA. It is filed as cell-based, human. Also noted: RFU PODN (11730768_x_at) / Fold change /veh PODN (11730768_x_at) / RFU LINC00158 (11744669_a_at) / Fold change /veh LINC00158 (11744669_a_at) / RFU DUSP10 (11751237_a_at) / Fold change /veh DUSP10 (11751237_a_at) / RFU ID3 (11757404_x_at) / Fold change /veh ID3 (11757404_x_at) / RFU PLEKHG5 (11737974_s_at) / Fold change /veh PLEKHG5 (11737974_s_at) / RFU LRRC4B (11730491_at) / Fold change /veh LRRC4B (11730491_at) / RFU GIMAP4 (11747438_a_at) / Fold change /veh GIMAP4 (11747438_a_at) / RFU KRT8 (11758183_x_at) / Fold change /veh KRT8 (11758183_x_at) / RFU CNN1 (11734310_a_at) / Fold change /veh CNN1 (11734310_a_at) / RFU VPS37D (11726825_at) / Fold change /veh VPS37D (11726825_at) / RFU C10orf10 (11716522_x_at) / Fold change /veh C10orf10 (11716522_x_at) / RFU KIR2DL2 /// KIR2DL4 /// KIR2DL5A /// KIR2DL5B /// KIR2DS1 /// KIR2DS2 /// KIR2DS3 /// KIR2DS4 /// KIR3DL3 /// KIR3DL3 /// KIR3DS1 (11738374_at) / Fold change /veh KIR2DL2 /// KIR2DL4 /// KIR2DL5A /// KIR2DL5B /// KIR2DS1 /// KIR2DS2 /// KIR2DS3 /// KIR2DS4 /// KIR3DL3 /// KIR3DL3 /// KIR3DS1 (11738374_at) / RFU C1QL1 (11718748_at) / Fold change /veh C1QL1 (11718748_at) / RFU TMPRSS4 (11747572_a_at) / Fold change /veh TMPRSS4 (11747572_a_at) / RFU HAMP (11756126_x_at) / Fold change /veh HAMP (11756126_x_at) / RFU RNFT2 (11725882_a_at) / Fold change /veh RNFT2 (11725882_a_at) / RFU NR4A2 (11747474_a_at) / Fold change /veh NR4A2 (11747474_a_at) / RFU ABCC12 (11746883_a_at) / Fold change /veh ABCC12 (11746883_a_at) / RFU TMEM136 (11760407_x_at) / Fold change /veh TMEM136 (11760407_x_at) / RFU CLDN22 /// WWC2 (11732394_at) / Fold change /veh CLDN22 /// WWC2 (11732394_at) / RFU HLA-DPB1 (11760878_x_at) / Fold change /veh HLA-DPB1 (11760878_x_at) / RFU SPINT1 (11716480_a_at) / Fold change /veh SPINT1 (11716480_a_at) / RFU GAP43 (11754022_s_at) / Fold change /veh GAP43 (11754022_s_at) / RFU A4GNT (11735810_at) / Fold change /veh A4GNT (11735810_at) / RFU PRB3 (11715151_x_at) / Fold change /veh PRB3 (11715151_x_at) / RFU TUBB4B (11761932_at) / Fold change /veh TUBB4B (11761932_at) / RFU CAPN14 (11732068_a_at) / Fold change /veh CAPN14 (11732068_a_at) / RFU TMCC2 (11721928_a_at) / Fold change /veh TMCC2 (11721928_a_at) / RFU IRGQ (11745062_a_at) / Fold change /veh IRGQ (11745062_a_at) / RFU FAM174B (11720279_a_at) / Fold change /veh FAM174B (11720279_a_at) / RFU TMPRSS4 (11748680_a_at) / Fold change /veh TMPRSS4 (11748680_a_at) / RFU FAM212B (11763350_a_at) / Fold change /veh FAM212B (11763350_a_at) / RFU PLEKHG5 (11743358_a_at) / Fold change /veh PLEKHG5 (11743358_a_at) / RFU ZSCAN30 (11745921_a_at) / Fold change /veh ZSCAN30 (11745921_a_at) / RFU CMKLR1 (11741424_a_at) / Fold change /veh CMKLR1 (11741424_a_at) / RFU LOC101060620 /// MAPK8IP1 (11723275_at) / Fold change /veh LOC101060620 /// MAPK8IP1 (11723275_at) / RFU SPTSSB (11747773_x_at) / Fold change /veh SPTSSB (11747773_x_at) / RFU PRSS12 (11739890_at) / Fold change /veh PRSS12 (11739890_at) / RFU BIN1 (11741810_x_at) / Fold change /veh BIN1 (11741810_x_at) / RFU WNT11 (11732464_a_at) / Fold change /veh WNT11 (11732464_a_at) / RFU C10orf10 (11716521_a_at) / Fold change /veh C10orf10 (11716521_a_at) / RFU C5orf56 (11738089_at) / Fold change /veh C5orf56 (11738089_at) / RFU CYB561 (11721691_x_at) / Fold change /veh CYB561 (11721691_x_at) / RFU ANKRD19P (11752326_a_at) / Fold change /veh ANKRD19P (11752326_a_at) / RFU OR2T12 /// OR2T33 /// OR2T8 (11738714_s_at) / Fold change /veh OR2T12 /// OR2T33 /// OR2T8 (11738714_s_at) / RFU VCAN (11748164_a_at) / Fold change /veh VCAN (11748164_a_at) / RFU JSRP1 (11732532_at) / Fold change /veh JSRP1 (11732532_at) / RFU KRTAP10-11 (11738290_x_at) / Fold change /veh KRTAP10-11 (11738290_x_at) / RFU MYO3A (11730013_a_at) / Fold change /veh MYO3A (11730013_a_at) / RFU EBF3 (11725865_a_at) / Fold change /veh EBF3 (11725865_a_at) / RFU CAMK2N1 (11719241_x_at) / Fold change /veh CAMK2N1 (11719241_x_at) / RFU C5orf56 (11738088_a_at) / Fold change /veh C5orf56 (11738088_a_at) / RFU OLFML3 (11715873_a_at) / Fold change /veh OLFML3 (11715873_a_at) / RFU LOC100653217 /// NTM (11731650_a_at) / Fold change /veh LOC100653217 /// NTM (11731650_a_at) / RFU MAPK11 (11762145_a_at) / Fold change /veh MAPK11 (11762145_a_at) / RFU FIZ1 (11724087_x_at) / Fold change /veh FIZ1 (11724087_x_at) / RFU OASL (11726364_x_at) / Fold change /veh OASL (11726364_x_at) / RFU SOX15 (11748057_x_at) / Fold change /veh SOX15 (11748057_x_at) / RFU CD79A (11719716_a_at) / Fold change /veh CD79A (11719716_a_at) / RFU HIST1H1D (11736915_at) / Fold change /veh HIST1H1D (11736915_at) / RFU CASKIN2 (11723855_a_at) / Fold change /veh CASKIN2 (11723855_a_at) / RFU LOC730098 (11760151_x_at) / Fold change /veh LOC730098 (11760151_x_at) / RFU OR4N2 (11742367_at) / Fold change /veh OR4N2 (11742367_at) / RFU PRRT2 (11749266_a_at) / Fold change /veh PRRT2 (11749266_a_at) / RFU SNX32 (11753110_a_at) / Fold change /veh SNX32 (11753110_a_at) / RFU CDHR5 (11726645_a_at) / Fold change /veh CDHR5 (11726645_a_at) / RFU RCAN1 (11760418_a_at) / Fold change /veh RCAN1 (11760418_a_at) / RFU FAM167A (11723789_a_at) / Fold change /veh FAM167A (11723789_a_at) / RFU FAM26E (11764081_at) / Fold change /veh FAM26E (11764081_at) / RFU ISYNA1 (11749810_s_at) / Fold change /veh ISYNA1 (11749810_s_at) / RFU ACY1 (11761880_at) / Fold change /veh ACY1 (11761880_at) / RFU 11764098_at / Fold change /veh 11764098_at / RFU SAMD14 (11745864_x_at) / Fold change /veh SAMD14 (11745864_x_at) / RFU NPB (11741838_a_at) / Fold change /veh NPB (11741838_a_at) / RFU TMPRSS6 (11731388_a_at) / Fold change /veh TMPRSS6 (11731388_a_at) / RFU KRTAP10-2 (11738614_at) / Fold change /veh KRTAP10-2 (11738614_at) / RFU ARHGAP8 /// PRR5-ARHGAP8 (11727945_x_at) / Fold change /veh ARHGAP8 /// PRR5-ARHGAP8 (11727945_x_at) / RFU KRTAP5-7 /// NADSYN1 (11734609_at) / Fold change /veh KRTAP5-7 /// NADSYN1 (11734609_at) / RFU RASL12 (11751679_a_at) / Fold change /veh RASL12 (11751679_a_at) / RFU CDKN2B (11736163_a_at) / Fold change /veh CDKN2B (11736163_a_at) / RFU PRF1 (11729649_at) / Fold change /veh PRF1 (11729649_at) / RFU, ZNF638 /// ZNF638-IT1 / Fold change vs veh, ZNF638 /// ZNF638-IT1 / RFU, PANK3 / Fold change vs veh, PANK3 / RFU, SH3YL1 / Fold change vs veh, SH3YL1 / RFU, ZEB2 / Fold change vs veh, ZEB2 / RFU, NRIP1 / Fold change vs veh, NRIP1 / RFU, PTTG1IP / Fold change vs veh, PTTG1IP / RFU, CAPN2 / Fold change vs veh, CAPN2 / RFU, MED14 / Fold change vs veh, MED14 / RFU, SNORA58 / Fold change vs veh, SNORA58 / RFU, C1orf63 / Fold change vs veh, C1orf63 / RFU, LRRFIP1 / Fold change vs veh, LRRFIP1 / RFU, NDUFAF7 / Fold change vs veh, NDUFAF7 / RFU, SLC12A2 / Fold change vs veh, SLC12A2 / RFU, IBTK / Fold change vs veh, IBTK / RFU, ESF1 / Fold change vs veh, ESF1 / Fold change vs veh, TMEM50B / RFU, TAOK1 / Fold change vs veh, TAOK1 / RFU, ACBD3 / Fold change vs veh, ACBD3 / RFU, TMA16 / Fold change vs veh, TMA16 / RFU, RWDD3 / Fold change vs veh, RWDD3 / RFU, BCAT1 / Fold change vs veh, BCAT1 / RFU, EDEM3 / Fold change vs veh, EDEM3 / RFU, TMEM33 / Fold change vs veh, TMEM33 / RFU, WDR75 / Fold change vs veh, WDR75 / RFU, AHCTF1 / Fold change vs veh, AHCTF1 / RFU, TFRC / Fold change vs veh, TFRC / RFU, ZDHHC17 / Fold change vs veh, ZDHHC17 / RFU, NOM1 / Fold change vs veh, NOM1 / RFU, ARL8B / Fold change vs veh, ARL8B / RFU, ZBTB11 / Fold change vs veh, ZBTB11 / RFU, TAMM41 / Fold change vs veh, TAMM41 / RFU, KIAA1704 /// LOC100996395 / Fold change vs veh, KIAA1704 /// LOC100996395 / RFU, ING1 / Fold change vs veh, ING1 / RFU, TRMT61B / Fold change vs veh, TRMT61B / RFU, FUBP3 / Fold change vs veh, FUBP3 / RFU, TP53 / Fold change vs veh, TP53 / RFU, TNKS2 / Fold change vs veh, TNKS2 / RFU, ZFP14 / Fold change vs veh, ZFP14 / RFU, ACTR2 / Fold change vs veh, ACTR2 / RFU, PPP3R1 / Fold change vs veh, PPP3R1 / RFU, PIK3R1 / Fold change vs veh, PIK3R1 / RFU, HNRNPA1 / Fold change vs veh, HNRNPA1 / RFU, RNF170 / Fold change vs veh, RNF170 / RFU, ZNF28 / Fold change vs veh, ZNF28 / RFU, RNGTT / Fold change vs veh, RNGTT / RFU, OGT / Fold change vs veh, OGT / RFU, BRD1 / Fold change vs veh, BRD1 / RFU, MARS / Fold change vs veh, MARS / RFU, ZNF655 / Fold change vs veh, ZNF655 / RFU, FAHD1 / Fold change vs veh, FAHD1 / RFU, BDP1 / Fold change vs veh, BDP1 / RFU, LRRCC1 / Fold change vs veh, LRRCC1 / RFU, ARID1A / Fold change vs veh, ARID1A / RFU, ZNF146 / Fold change vs veh, ZNF146 / RFU, ZNF330 / Fold change vs veh, ZNF330 / RFU, GPN3 / Fold change vs veh, GPN3 / RFU, C9orf123 / Fold change vs veh, C9orf123 / RFU, N4BP2L2 / Fold change vs veh, N4BP2L2 / RFU, ARFIP1 / Fold change vs veh, ARFIP1 / RFU, FAM179B / Fold change vs veh, FAM179B / RFU, BCL10 / Fold change vs veh, BCL10 / RFU, UHRF1BP1L / Fold change vs veh, UHRF1BP1L / RFU, BET1 / Fold change vs veh, BET1 / RFU, CNOT2 / Fold change vs veh, CNOT2 / RFU, ZNF268 / Fold change vs veh, ZNF268 / Fold change vs veh, ZNF507 / RFU, DGCR2 / Fold change vs veh, DGCR2 / RFU, WDSUB1 / Fold change vs veh, WDSUB1 / Fold change vs veh, HSP90B1 /// MIR3652 / RFU, ADSS / Fold change vs veh, ADSS / RFU, GK / Fold change vs veh, GK / RFU, ZNF148 / Fold change vs veh, ZNF148 / RFU, TAF9 / Fold change vs veh, TAF9 / RFU, SLC1A5 / Fold change vs veh, SLC1A5 / RFU, SLMO2 / Fold change vs veh, SLMO2 / RFU, ABCC4 / Fold change vs veh, ABCC4 / RFU, LOC101060439 /// RAP1B / Fold change vs veh, LOC101060439 /// RAP1B / RFU, RFX7 / Fold change vs veh, RFX7 / RFU, GTPBP10 / Fold change vs veh, GTPBP10 / RFU, CNEP1R1 / Fold change vs veh, CNEP1R1 / RFU, BIVM-ERCC5 /// ERCC5 / Fold change vs veh, BIVM-ERCC5 /// ERCC5 / RFU, ILF3 / Fold change vs veh, ILF3 / RFU 11762660_at / Fold change /veh 11762660_at / RFU VCAN (11757783_s_at) / Fold change /veh VCAN (11757783_s_at) / RFU DDX43 (11728927_at) / Fold change /veh DDX43 (11728927_at) / RFU KRT8 (11758188_x_at) / Fold change /veh KRT8 (11758188_x_at) / RFU NKD1 (11759106_at) / Fold change /veh NKD1 (11759106_at) / RFU SRD5A1 (11742802_a_at) / Fold change /veh SRD5A1 (11742802_a_at) / RFU TPSAB1 /// TPSB2 (11721975_s_at) / Fold change /veh TPSAB1 /// TPSB2 (11721975_s_at) / RFU GSTM3 (11746129_a_at) / Fold change /veh GSTM3 (11746129_a_at) / RFU IL23R (11737362_x_at) / Fold change /veh IL23R (11737362_x_at) / RFU TMEM51 (11727254_a_at) / Fold change /veh TMEM51 (11727254_a_at) / RFU PIWIL2 (11732686_x_at) / Fold change /veh PIWIL2 (11732686_x_at) / RFU ORM1 (11744905_x_at) / Fold change /veh ORM1 (11744905_x_at) / RFU CCDC152 (11743942_at) / Fold change /veh CCDC152 (11743942_at) / RFU ECM1 (11717891_a_at) / Fold change /veh ECM1 (11717891_a_at) / RFU IL23R (11748794_a_at) / Fold change /veh IL23R (11748794_a_at) / RFU TNFAIP8L3 (11732012_x_at) / Fold change /veh TNFAIP8L3 (11732012_x_at) / RFU MBOAT4 (11741988_at) / Fold change /veh MBOAT4 (11741988_at) / RFU 11764193_at / Fold change /veh 11764193_at / RFU TMEM53 (11763286_at) / Fold change /veh TMEM53 (11763286_at) / RFU MAGEB2 (11727129_at) / Fold change /veh MAGEB2 (11727129_at) / RFU TMEM200A (11744735_a_at) / Fold change /veh TMEM200A (11744735_a_at) / RFU CCDC152 (11751479_a_at) / Fold change /veh CCDC152 (11751479_a_at) / RFU FAM211A (11726209_a_at) / Fold change /veh FAM211A (11726209_a_at) / RFU RGS16 (11746705_a_at) / Fold change /veh RGS16 (11746705_a_at) / RFU VCAN (11755009_s_at) / Fold change /veh VCAN (11755009_s_at) / RFU RHOB (11743442_s_at) / Fold change /veh RHOB (11743442_s_at) / RFU RGS16 (11720943_a_at) / Fold change /veh RGS16 (11720943_a_at) / RFU RGS16 (11720944_at) / Fold change /veh RGS16 (11720944_at) / RFU, VPS4B / Fold change vs veh, VPS4B / RFU, CREB1 / Fold change vs veh, CREB1 / RFU, DNAJC13 / Fold change vs veh, DNAJC13 / RFU, GNAQ / Fold change vs veh, GNAQ / RFU, CDK5R1 / Fold change vs veh, CDK5R1 / RFU, ZRANB3 / Fold change vs veh, ZRANB3 / RFU, CUL4A / Fold change vs veh, CUL4A / RFU, CCNY / Fold change vs veh, CCNY / RFU, UFL1 / Fold change vs veh, UFL1 / RFU, COG3 / Fold change vs veh, COG3 / RFU, DIAPH2 / Fold change vs veh, DIAPH2 / RFU, SKA2 / Fold change vs veh, SKA2 / RFU, AFF3 / Fold change vs veh, AFF3 / RFU, LMF1 / Fold change vs veh, LMF1 / RFU, IPO11 / Fold change vs veh, IPO11 / RFU, DFFB / Fold change vs veh, DFFB / RFU, FOXP1 / Fold change vs veh, FOXP1 / RFU, CARD8 / Fold change vs veh, CARD8 / RFU, STRN3 / Fold change vs veh, STRN3 / RFU, ADK / Fold change vs veh, ADK / RFU, RASSF2 / Fold change vs veh, RASSF2 / RFU, WIPF1 / Fold change vs veh, WIPF1 / RFU, LARP1B / Fold change vs veh, LARP1B / RFU, RASA1 / Fold change vs veh, RASA1 / RFU, RB1 / Fold change vs veh, RB1 / RFU, PPFIA1 / Fold change vs veh, PPFIA1 / RFU, MAT2A / Fold change vs veh, MAT2A / RFU, CCT5 / Fold change vs veh, CCT5 / RFU, WDR92 / Fold change vs veh, WDR92 / RFU, CUX1 / Fold change vs veh, CUX1 / RFU, TTC7A / Fold change vs veh, TTC7A / RFU, TMEM135 / Fold change vs veh, TMEM135 / RFU, DEPTOR / Fold change vs veh, DEPTOR / RFU, CPM / Fold change vs veh, CPM / RFU, DNAJB6 / Fold change vs veh, DNAJB6 / RFU, CACNA2D3 / Fold change vs veh, CACNA2D3 / RFU, DTX4 / Fold change vs veh, DTX4 / RFU, TFCP2 / Fold change vs veh, TFCP2 / RFU, GMCL1 /// GMCL1P1 / Fold change vs veh, GMCL1 /// GMCL1P1 / RFU, AEBP2 / Fold change vs veh, AEBP2 / RFU, SNHG1 /// SNORD22 /// SNORD25 /// SNORD26 /// SNORD27 /// SNORD28 /// SNORD29 /// SNORD31 / Fold change vs veh, SNHG1 /// SNORD22 /// SNORD25 /// SNORD26 /// SNORD27 /// SNORD28 /// SNORD29 /// SNORD31 / Fold change (Aza/veh), C12orf56 (ProbeSet 11735607_a_at) / Fold change (ACY-1035/veh), C12orf56 (ProbeSet 11735607_a_at) / Fold change (Aza/veh), FGFR1OP (ProbeSet 11751329_s_at) / Fold change (ACY-1035/veh), FGFR1OP (ProbeSet 11751329_s_at) / Fold change (Aza/veh), VPS36 (ProbeSet 11739960_a_at) / Fold change (ACY-1035/veh), VPS36 (ProbeSet 11739960_a_at) / RFU SYPL1 (11715823_x_at) / Fold change /veh SYPL1 (11715823_x_at) / RFU IGFBP7 (11715501_s_at) / Fold change /veh IGFBP7 (11715501_s_at) / RFU REEP3 (11722064_at) / Fold change /veh REEP3 (11722064_at) / RFU IGLL1 (11728026_x_at) / Fold change /veh IGLL1 (11728026_x_at): dose or concentration left out as unconfirmed. To be noted: ProbeSet 11724877_a_at; LIST D.

Regarding `Nc1ccc(-c2cccs2)cc1NC(=O)c1ccc2c(c1)cc(C1CC1)n2CCN1CCOCC1` [ACY-1035], the “Fold change vs veh, AEBP2” value was 1.03.
